Assay results taken from PubChem BioAssay (NCI).
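Compound exposure: 48 hours, 5 concentrations, 96-well plates. TGI: concentration producing complete growth inhibition.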

Legend:
Assay in all cases: NCI-60 cell line screen, 48 h
[1] = test system: 786-0 renal
[2] = test system: CCRF-CEM leukemia
[3] = test system: COLO 205 colon
[4] = test system: HCC-2998 colon
[5] = test system: HL-60(TB) leukemia
[6] = test system: HOP-62 NSCLC
[7] = test system: HT29 colon
[8] = test system: KM12 colon
[9] = test system: MDA-MB-435
[10] = test system: MDA-N
[11] = test system: MOLT-4 leukemia
[12] = test system: NCI-H23 lung
[13] = test system: PC-3 prostate
[14] = test system: RPMI-8226 leukemia
[15] = test system: RXF 393 renal
[16] = test system: SF-268 CNS
[17] = test system: SN12C renal
[18] = test system: UACC-257 melanoma
[19] = test system: EKVX NSCLC
[20] = test system: SK-OV-3 ovarian

| SMILES | TGI [1] [µM] | TGI [2] [µM] | TGI [3] [µM] | TGI [4] [µM] | TGI [5] [µM] | TGI [6] [µM] | TGI [7] [µM] | TGI [8] [µM] | TGI [9] [µM] | TGI [10] [µM] | TGI [11] [µM] | TGI [12] [µM] | TGI [13] [µM] | TGI [14] [µM] | TGI [15] [µM] | TGI [16] [µM] | TGI [17] [µM] | TGI [18] [µM] | TGI [19] [µM] | TGI [20] [µM] |
| --- | --- | --- | --- | --- | --- | --- | --- | --- | --- | --- | --- | --- | --- | --- | --- | --- | --- | --- | --- | --- |
| Nc1ncc(C=O)c(NCC2(CO)CCC2)n1 | > 100 | > 100 | > 100 | > 100 | > 100 | > 100 | > 100 | > 100 | > 100 | > 100 | > 100 | > 100 | > 100 | > 100 | > 100 | > 100 | > 100 | > 100 |  |  |
| O=C(COc1ccccc1)N(C(=O)N1CCN(c2ccccc2)CC1)S(=O)(=O)c1ccccc1 | > 100 | 61.2 | > 100 | > 100 | > 100 | > 100 | > 100 | > 100 | > 100 | > 100 | 61.9 | > 100 | > 100 |  |  | > 100 | > 100 | > 100 | > 100 | > 100 |
| COc1ccc(-c2csc(Cc3nc4c(Br)cc(Br)cc4c(=O)n3-c3ccc(OC)cc3)n2)cc1 | > 100 | > 100 | > 100 | > 100 |  | > 100 | > 100 | > 100 | > 100 | > 100 | > 100 | > 100 | > 100 |  | > 100 |  |  | > 100 | > 100 | > 100 |
| CCOC(=O)CSC1NC(C(=O)OC)CC1OC (configuration not stated) | > 100 | > 100 | > 100 | > 100 |  | > 100 | > 100 | > 100 | > 100 | > 100 | > 100 | > 100 | > 100 | > 100 | > 100 | > 100 |  | > 100 | > 100 | > 100 |
| COc1ccccc1/C=C1\S/C(=N/Nc2nc(C)c(C(C)=O)s2)NC1=O | > 100 | > 100 | 46.2 | > 100 | 63.2 | > 100 | > 100 | > 100 | > 100 | 88.1 | > 100 | > 100 | > 100 | 89.4 | > 100 | 96.6 | > 100 | > 100 |  | > 100 |
| Cc1cn(Cc2cccc(C3=NCCCN3)c2)c(=O)n(Cc2cccc(C3=NCCCN3)c2)c1=O | > 100 | > 100 | > 100 | > 100 | > 100 | > 100 |  | > 100 | > 100 | > 100 | > 100 | > 100 | > 100 | > 100 |  | > 100 | > 100 | > 100 | > 100 | > 100 |
